Laboratory results published in patent EP4596561A1, “PHOSPHORUS-CONTAINING COMPOUND, PHARMACEUTICAL COMPOSITION AND USE THEREOF” (Suzhou Genhouse Bio Co., Ltd., priority 2022, dated 2024).
Where two headings read alike, the source gives them in different places.

Experiments:
[1] = tested on: NCI-H28 (NF2 wide-type); test: Inhibition of cell proliferation (CellTiter-Lumi); format: cell-based; details: Homo sapiens, 72 h + another 72 h treatment
Experimental: (§1) NCI-H2052 (NF2 mutant), NCI-H226 (NF2 mutant), NCI-H2452 (NF2 wide-type), NCI-H28 (NF2 wide-type), and MSTO-211H (NF2 wide-type) cells were cultured in RPMI 1640 complete media.
(§2) The normally growing cells described above were digested with a trypsin cell-digesting solution, centrifuged, counted, and then plated in a 96-well plate at a density of 1000 cells per well. Administration was performed 24 h after the cell plating. Inhibitors at different concentration gradients were added at 10 µL per well, and three replicate wells were set for each concentration point. The starting concentration was 20 µM and diluted 8 times with a 4-fold gradient. A corresponding negative control group treated with 0.1% DMSO was also set up. After 72 h of drug treatment, the cell culture plate to be tested was taken out of the incubator. The culture medium in the 96-well plate was pipetted, and 190 µL of fresh RPMI 1640 complete medium was added. Another administration was performed, and the cells were cultured for another 72 h. The 96-well plate was taken out and allowed to equilibrate at room temperature for 10 min. […] After shaking for two minutes, the mixture was reacted at room temperature for 10 min. Then, 150 µL of liquid was pipetted from the transparent 96-well plate and transferred to a white 96-well plate for chemiluminescence reading. The background value was subtracted from the value for each well to calculate the cell survival rate. Survival rate (%) = […]. Sample is the chemiluminescence of the drug-treated group, and Vehicle is the […] of the DMSO control group. A sigmoidal dose-survival rate curve was plotted using a non-linear regression model in the GraphPad Prism 7.0 software, and the IC50 values or GI50 values were calculated.

[2] = tested on: NCI-H2452 (NF2 wide-type); test: Inhibition of cell proliferation (CellTiter-Lumi); format: cell-based; details: Homo sapiens, 72 h + another 72 h treatment
Experimental: as §1, §2

[3] = tested on: MSTO-211H (NF2 wide-type); test: Inhibition of cell proliferation (CellTiter-Lumi); format: cell-based; details: Homo sapiens, 72 h + another 72 h treatment
Experimental: as §1
The normally growing cells described above were digested with a trypsin cell-digesting solution, centrifuged, counted, and then plated in a 96-well plate at a density of 1000 cells per well. Administration was performed 24 h after the cell plating. Inhibitors at different concentration gradients were added at 10 µL per well, and three replicate wells were set for each concentration point. The starting concentration was 20 µM and diluted 8 times with a 4-fold gradient. A corresponding negative control group treated with 0.1% DMSO was also set up. After 72 h of drug treatment, the cell culture plate to be tested was taken out of the incubator. The culture medium in the 96-well plate was pipetted, and 190 µL of fresh RPMI 1640 complete medium was added. Another administration was performed, and the cells were cultured for another 72 h. The 96-well plate was taken out and allowed to equilibrate at room temperature for 10 min. The medium in the 96-well plate was pipetted, and 200 µL of CellTiter-Lumi™ luminescent cell viability detection solution (mixed with a medium in a ratio of 1:1) was added. After shaking for two minutes, the mixture was reacted at room temperature for 10 min. Then, 150 µL of liquid was pipetted from the transparent 96-well plate and transferred to a white 96-well plate for chemiluminescence reading. The background value was subtracted from the value for each well to calculate the cell survival rate. Survival rate (%) = […]. Sample is the chemiluminescence of the drug-treated group, and Vehicle is the […] of the DMSO control group. A sigmoidal dose-survival rate curve was plotted using a non-linear regression model in the GraphPad Prism 7.0 software, and the IC50 values or GI50 values were calculated.

[4] = tested on: YAP-TEAD transcription complex; test: YAP-TEAD reporter gene assay (dual luciferase, stably transfected 293T cells); format: cell-based; details: Homo sapiens, HEK-293T
Experimental: YAP-TEAD reporter gene The YAP-TEAD reporter gene assay was performed as follows. Firstly, the 8xGTIIC promoter sequence ([…] GTACTGTTGGTAAA) was constructed into a pGL4.20(luc2-Puro) plasmid, and the TK promoter ([…]) unrelated to the hippo pathway was constructed into a pGL4.78(hRlucCP/Hygro) plasmid, thereby constructing stably transfected 293T cells that can stably and continuously express the transcriptional activity of the YAP-TEAD transcription complex. After selection and identification of individual clones, the clones were grown and maintained in a DMEM medium containing 10% fetal bovine serum, penicillin-streptomycin solution, 1 µg/mL puromycin, and 150 µg/mL hygromycin. To perform reporter gene assays with the compounds to be tested, the well-growing cells described above were plated in a 384-well plate at a cell density of 3000 cells per well, with 90 µL per well. The periphery was sealed with an appropriate amount of PBS to prevent evaporation of water from the peripheral wells. Administration was performed on the next day after the cell plating. The test compounds were added at different concentration gradients, and three replicate wells were set for each concentration point. The compound concentration started at 5 µM and was diluted seven times with a 5-fold gradient. A corresponding negative control group treated with DMSO was also set up. After 24 h of drug treatment, the detection reagents were prepared first. The Dual-Lumi™ Firefly luciferase detection reagent and Dual-Lumi™ Renilla luciferase detection buffer were dissolved and brought to room temperature. […]. According to the amount of 100 µL of Dual-Lumi™ Renilla luciferase detection working solution required for the detection of each sample, an appropriate amount of Dual-Lumi™ Renilla luciferase detection working solution was prepared. […]. The cell culture plate was taken out and allowed to equilibrate at room temperature for 10 min (usually no more than 30 min). Then, 100 µL of Dual-Lumi™ Firefly luciferase detection reagent was added to each well of a 96-well plate (25 µL per well for the 384-well plate), and the mixture was mixed well. The mixture was then incubated at room temperature (about 25 °C) for 10 min to stabilize the luminescent signal, and then chemiluminescence was detected using a multimode microplate reader with a chemiluminescence detection function. Subsequently, the detection of Renilla luciferase began. Firstly, 100 µL of Dual-Lumi™ Renilla luciferase detection working solution was added to each well of a […] (25 µL per well for the 384-well plate), and the mixture was mixed well. The mixture was then incubated at room temperature (about 25 °C) for 10 min to stabilize the luminescent signal. Finally, chemiluminescence was detected using a multimode microplate reader with a chemiluminescence detection function. The obtained data were analyzed using GraphPad Prism 7.0 software. A sigmoidal dose-survival rate curve was plotted using a non-linear regression model, and the IC50 values were calculated.

[5] = Pharmacokinetic test in mice (low dose); format: in vivo, Balb/c mice; details: mouse, in vivo, mice; for AUC(0-t): read-out: AUClast; for half-life: read-out: T1/2 (converted)
Experimental: The compounds of the present disclosure were administered to Balb/c mice by single intravenous injection and oral gavage, and the plasma of the mice at each time point was collected. The concentration of the compounds to be tested in BALB/C plasma was detected using the LC-MS/MS analysis method, and pharmacokinetic analysis was performed.
The mixture was vortexed, shaken, and ultrasonicated. The remaining volume of 25% sulfobutylether-β-cyclodextrin (sterilized) was added to prepare the final concentration solution or suspension.
Intravenous injection formulations will be directly administered in animal experiments without filtration. The IV drug preparation vials were disinfected in an infrared sterilization cabinet one day in advance.
Intravenous injection: Administration was performed via the tail vein. After the needle was inserted, the syringe was slowly […].
Gavage: Gavage needle and syringe of an appropriate type were selected. The gavage needle was inserted from the root of the tongue into the esophagus until it reached near the cardia of the stomach, then the drug formulation was injected, and the gavage needle was withdrawn. When disposable plastic gavage needles were used, one needle was used for each group.
At each time point, 60 µL of whole blood was collected from the submandibular vein or tail vein (except for the IV group). The blood sample was added to a pre-cooled anticoagulant blood collection tube containing anticoagulant EDTA-K2 (1 µL, 15% EDTA-K2 solution), placed on wet ice, and centrifuged (3000 g, 4 °C, 10 min) within 1 h. The plasma was immediately collected after centrifugation, transferred to an EP tube, and stored at -90 °C to -60 °C.
Plasma concentration detection: A developed LC-MS/MS method was used to detect the compounds in plasma.
The plasma concentration-time data were analyzed using a non-compartmental model in the Phoenix® WinNonlin® (Version 8.2, Pharsight, Mountain View, CA).

[6] = Stability test in liver microsomes; format: in vitro ADME; details: Human liver microsomes, 0.5 mg/mL, 1.0 µM substrate
Experimental: (§3) Phase I metabolic stability of the test compounds in liver microsomes of CD-1 mice, Sprague-Dawley rats, and humans was assessed.
(§4) The animal and human liver microsomes used in the test system were purchased from Xenotech, Corning, or other qualified suppliers and stored in a freezer at a temperature below -60 °C prior to use. The information of the animal and human liver microsomes used was as follows:
(§5) The test samples and the reference compounds were separately incubated with animal and human liver microsomes at 37±1 °C for a period of incubation time of up to 60 min. The samples were taken out at the indicated time points, and the reaction was stopped with acetonitrile or another organic solvent containing an internal standard. After centrifugation, the resulting supernatants were assayed by the liquid chromatography-tandem mass spectrometry (LC-MS/MS) method.
(§6) Microsomes of each species were diluted into a 2× working solution with a 100 mM potassium phosphate buffer. […]
(§7) Incubation was performed in a 96-well plate. Eight incubation plates were prepared and designated T0, T5, T15, T30, T45, T60, Blank60, and NCF60, respectively. The first 6 plates corresponded to reaction time points of 0 min, 5 min, 15 min, 30 min, 45 min, and 60 min, respectively. No test sample or reference compound was added to the Blank60 plate, and samples were taken after 60 min of incubation. In the NCF60 plate, incubation was performed for 60 min using the potassium phosphate buffer instead of the NADPH regeneration system solution. Three replicates were made for samples in all conditions.
(§8) The microsomes and the test sample or reference compound were mixed, and then the incubation plates Blank60, T5, T15, T30, T45, and T60 except for T0 and NCF60 were placed in a 37 °C water bath for pre-incubation for about 10 min. In the incubation plate T0, a stop solution was first added, followed by the addition of the NADPH regeneration system working solution, and 98 µL of the potassium phosphate buffer was added to each sample well of the incubation plate NCF60 to initiate the reaction. After the pre-incubation of the incubation plates Blank60, T5, T15, T30, T45, and T60 was completed, 98 µL of the NADPH regeneration system working solution was added to each sample well to initiate the reaction. The reaction temperature was 37±1 °C, the final volume of the reaction was 200 µL, and the reaction system included 0.5 mg/mL microsomes, 1.0 µM substrate, 1 mM NADP, 6 mM ISO, and 1 unit/mL IDH.
(§9) At 5 min, 15 min, 30 min, 45 min, and 60 min, a cold stop solution containing an internal standard was added to the reaction plate to stop the reaction.
(§10) All the reaction plates after the reaction was stopped were shaken well and centrifuged at 3220× g at 4 °C for 20 min. After the supernatant was diluted at a certain ratio, LC-MS/MS analysis was performed.
(§11) Sample analysis was performed by the liquid chromatography-tandem mass spectrometry (LC-MS/MS) method without standard curves and quality control samples. Semi-quantitative determination was performed according to the ratio of the analyte peak area to the internal standard peak area. The retention times of the analyte and internal standard, the chromatogram acquisition, and chromatogram integration were processed using the Analyst software (Sciex, Framingham, Massachusetts, USA).
(§12) According to the well stir model, the hepatic intrinsic clearance and hepatic clearance can be converted through the following formula. CL(liver) = (CLint(liver)×Qh)/(CLint(liver)+Qh) [formula]

[7] = Stability test in liver microsomes; format: in vitro ADME, CD-1 mouse; details: mouse liver microsomes, 0.5 mg/mL, 1.0 µM substrate
Experimental: as §3, §4, §5, §6, §7, §8, §9, §10, §11, §12

[8] = Stability test in liver microsomes; format: in vitro ADME, SD rat; details: rat liver microsomes, 0.5 mg/mL, 1.0 µM substrate
Experimental: as §3, §4, §5, §6, §7, §8, §9, §10, §11, §12

[9] = 293T reporter cells, 24 h of drug treatment, read-out: IC50

| SMILES | IC50 [1] | IC50 [2] | IC50 [3] | IC50 [4, 9] | further results |
| --- | --- | --- | --- | --- | --- |
| CP(C)(=O)c1cnc(Nc2ccc(C(F)(F)F)cc2)c(-n2cccn2)c1 [Example 18] | > 20000 nM | > 1250 nM | > 1250 nM |  |  |
| Cn1cnc(-c2cc(P(C)(C)=O)ccc2Nc2ccc(C(F)(F)F)cn2)c1 [Example 13] | > 5000 nM | > 20000 nM | > 20000 nM | 344 nM |  |
| Cn1cc2c3cc(P(C)(C)=O)ccc3n(-c3ccc(C(F)(F)F)cc3)c2n1 [Example 16] |  |  |  |  | MRT ([5]; IV 2 mg/kg): 3.6 h; AUC(0-t) ([5]; IV 2 mg/kg): 5.44 µM·h; clearance ([5]; IV 2 mg/kg, read-out: Cl (converted)): 13.3 mL/min/kg; half-life ([5]; IV 2 mg/kg): 2.7 h; MRT ([5]; PO 10 mg/kg): 5.3 h; bioavailability ([5]; PO 10 mg/kg vs IV 2 mg/kg, read-out: F%): 206%; AUC(0-t) ([5]; PO 10 mg/kg): 63.5 µM·h; Cmax ([5]; PO 10 mg/kg, read-out: Cmax): 7.17 µM; half-life ([5]; PO 10 mg/kg): 3.1 h; half-life at 1 µM [6]: > 2.42 h; half-life at 1 µM [7]: > 2.42 h; half-life at 1 µM [8]: > 2.42 h; IC50 ([4]; 24 h): 31.8 nM |
| CP(C)(=O)c1ccc2c(c1)c1nccnc1n2-c1ccc(C(F)(F)F)cc1 [Example 19] | > 5000 nM | > 5000 nM | 628 nM |  |  |
| CP(C)(=O)c1cnc(Nc2ccc(C(F)(F)F)cc2)c(-n2cc(C(F)(F)F)cn2)c1 [Example 20] | > 20000 nM |  | > 1250 nM | 439 nM |  |
